Test results published in patent publication EP0327492A1, “Herbicidally and plantgrowth regulatory active quinoline and pyrindine compounds” (CIBA-GEIGY AG, priority 1988, dated 1989).

Key:
Type in all cases: in vivo
Abutilon = experiment: Post-emergent herbicidal action, contact herbicide (B.3); details: 500 bis 2000 [g/ha], 15 days after treatment
Description: (§1) Im Gewächshaus wird unmittelbar nach der Einsaat der Versuchspflanzen in Saatschalen die Erdoberfläche mit einer wässrigen Dispersion der Wirkstoffe, erhalten aus einem 25 %igen Emulsionskonzentrat behandelt. Es werden Konzentrationen von 2000-500 g Wirksubstanz/Hektar angewendet. Die Saatschalen werden im Gewächshaus bei 22-25° C und 50-70 % relativer Luftfeuchtigkeit gehalten und der Versuch nach 3 Wochen ausgewertet und die Resultate nach folgender Notenskala ausgewertet. • 1 Pflanze hat nicht gekeimt oder ist eingegangen • 2-3 sehr starke Schäden • 4 starke Schäden • 5 mittlere Schäden, die Pflanzen sind verkümmert • 6 Schäden, die Pflanze kann regenerieren • 7-8 leichte Schäden • 9 normales Wachstum, wie das unbehandelter Pflanzen
(§2) Boniturnoten von 1 bis 4 (insbesondere von 1 bis 3) weisen auf eine gute bis sehr gute Herbizidwirkung hin. Boniturnoten von 6 bis 9 (insbesondere 7 bis 9) weisen auf eine gute Toleranz (insbesondere bei Kulturpflanzen) hin.
(§3) Eine Anzahl Unkräuter, sowohl monokotyle wie dikotyle, werden nach dem Auflaufen (im 4- bis 6-Blattstadium) mit einer wässrigen Wirkstoffdispersion in einer Dosierung von 2000-500 g Wirksubstanz pro Hektar auf die Pflanzen gespritzt und diese bei 24°-26°C und 45-60 % relativer Luftfeuchtigkeit gehalten. 15 Tage nach der Behandlung wird der Versuch nach dem in Beispiel B.2. gegebenen Massstab bewertet.

Alopecurus myos. = experiment: as above; details: 500 bis 2000 [g/ha], 15 days after treatment
Description: as §1, §2, §3

Stellaria = experiment: as above; details: 500 bis 2000 [g/ha], 15 days after treatment
Description: as §1, §2, §3

Echinochloa crus galli = experiment: as above; details: 500 bis 2000 [g/ha], 15 days after treatment
Description: as §1, §2, §3

Veronica Sp. = experiment: as above; details: 500 bis 2000 [g/ha], 15 days after treatment
Description: as §1, §2, §3

Sorghum halep. = experiment: as above; details: 500 bis 2000 [g/ha], 15 days after treatment
Description: as §1, §2, §3

Xanthium Sp. = experiment: as above; details: 500 bis 2000 [g/ha], 15 days after treatment
Description: as §1, §2, §3

Avena fatua = experiment: as above; details: 500 bis 2000 [g/ha], 15 days after treatment
Description: as §1, §2, §3

Galium aparine = experiment: as above; details: 500 bis 2000 [g/ha], 15 days after treatment
Description: as §1, §2, §3

Chrysanthe. leuc. = experiment: as above; details: 500 bis 2000 [g/ha], 15 days after treatment
Description: as §1, §2, §3

Chenopodium Sp. = experiment: as above; details: 500 bis 2000 [g/ha], 15 days after treatment
Description: as §1, §2, §3

Amaranthus ret. = experiment: as above; details: 500 bis 2000 [g/ha], 15 days after treatment
Description: as §1, §2, §3

Bromus tectorum = experiment: as above; details: 500 bis 2000 [g/ha], 15 days after treatment
Description: as §1, §2, §3

Lolium perenne = experiment: as above; details: 500 bis 2000 [g/ha], 15 days after treatment
Description: as §1, §2, §3

Sinapis = experiment: as above; details: 500 bis 2000 [g/ha], 15 days after treatment
Description: as §1, §2, §3

Digitaria sang. = experiment: as above; details: 500 bis 2000 [g/ha], 15 days after treatment
Description: as §1, §2, §3

Solanum nigrum = experiment: as above; details: 500 bis 2000 [g/ha], 15 days after treatment
Description: as §1, §2, §3

Soja = experiment: Post-emergent herbicidal action (B.3), crop tolerance; details: 500 bis 2000 [g/ha], 15 days after treatment
Description: as §1, §2, §3

Baumwolle = experiment: as above; details: 500 bis 2000 [g/ha], 15 days after treatment
Description: as §1, §2, §3

Untersaaten in Mais = experiment: Pre-post selectivity: growth inhibition of undersown grasses (post-emergent) versus maize (pre-emergent)
Source text: Verbindungen der Formel I zeigen in vorteilhafter Weise eine "pre-post-Selektivität" bei verscheidenen Gräsern in Maiskulturen.
Die wuchshemmende Wirkung in Gräsern ist in postemergenter Applikation stark ausgeprägt, während bei gleichzeitiger Preemergenter Applikation Maispflanzen in ihrem Wuchs nur geringfügig gehemmt werden. Derartige "pre-post-Selektivitäten" erlauben somit die Aussaat von Mais in Gräsern. Dabei soll der Zeitpunkt für die Applikation der Aktivsubstanz der Formel so gewählt werden, dass die Aktivsubstanz postemergent für die Gräser ober preemergent für den Mais angewendet wird. In den ersten Wochen ist der Zuwachs der Gräser so stark gehemmt, dass die Maispflanze sich ungehindert entfalten kann.
Eine Mischung von Gräsern (z.B. Poa, Festuca, Lolium, Bromus, Cynosurus) werden in 15 cm - Kunststofftöpfen mit steriler Landerde angesät und im Gewächshaus bei einer Tagestemperatur von 21°C und einer Nachttemperatur von 17°C angezogen. Die Beleuchtungsdauer beträgt 13,5 Stunden/Tag bei einer Lichtintensität von mind. 7000 Lux. Nach dem Ablauf werden die Pflanzen wöchentlich auf ca. 6 cm Höhe zurückgeschnitten. Ca. 42 Tage nach der Saat und 1 Tag nach dem letzten Schnitt erfolgt die Applikation mit 60-500 g Wirkstoff/ha als wässrige Spritzbrühe. Die Wasseraufwandmenge ist ca. 500 I/ha.
20 Tage nach der Behandlung wird der Versuch ausgewertet. Hierbei wird die Höhe des Neuzuwachses gemessen und in % Hemmung zum Durchschnitt der unbehandelten Kontrollen dargestellt. Die nekrotischen Schäden sind in % zur gesamten Blattfläche aufgeführt.
Mais der Sorte Blizzard G188 werden in 15 cm - Kunststofftöpfen mit steriler gesiebter Landerde angesät und im Gewächshaus bei einer Tagestemperatur von 22°C und einer Nachttemperatur von 19°C aufgestellt. Die Beleuchtungsdauer beträgt mindestens 13,5 Stunden/Tag bei einer Lichtintensität von mindestens 7000 Lux. 1 Tag nach der Saat erfolgt die Applikation mit 60-500 g Wirkstoff/ha, in der Regel 25 %ig formuliert und in wässriger Spritzbrühe. Die Wasseraufwandmenge ist ca. 200 I/ha.
16 Tage nach der Behandlung wird der Versuch ausgewertet. […]

Compound	Herbizidwirkung (Abutilon)	Herbizidwirkung (Alopecurus myos.)	Herbizidwirkung (Stellaria)	Herbizidwirkung (Echinochloa crus galli)	Herbizidwirkung (Veronica Sp.)	Herbizidwirkung (Sorghum halep.)	Herbizidwirkung (Xanthium Sp.)	Herbizidwirkung (Avena fatua)	Herbizidwirkung (Galium aparine)	Herbizidwirkung (Chrysanthe. leuc.)	Herbizidwirkung (Chenopodium Sp.)	Herbizidwirkung (Amaranthus ret.)	Herbizidwirkung (Bromus tectorum)	Herbizidwirkung (Lolium perenne)	Herbizidwirkung (Sinapis)	Herbizidwirkung (Digitaria sang.)	Herbizidwirkung (Solanum nigrum)	Toleranz (im Wachstum beeinflusst) (Soja)	Toleranz (im Wachstum beeinflusst) (Baumwolle)	"pre-post-Selektivität" bei Untersaaten in Mais (Untersaaten in Mais)
CC1CCc2nc(C3=NC(=O)C(C)(C(C)C)N3)c(C(=O)O)cc21 (stereo not drawn) [Verbindung 2.06, 7H-5,6-Dihydro-2-(5-isopropyl-5-methyl-1 H-imidazol-4-on-2-yl)-5-methyl-1-pyrindin-3-carbonsäure]	gute bis sehr gute Herbizidwirkung (Boniturnoten von 1 bis 4 (insbesondere von 1 bis 3) weisen auf eine gute bis sehr gute Herbizidwirkung hin)	gute bis sehr gute Herbizidwirkung (Boniturnoten von 1 bis 4 (insbesondere von 1 bis 3) weisen auf eine gute bis sehr gute Herbizidwirkung hin)	gute bis sehr gute Herbizidwirkung (Boniturnoten von 1 bis 4 (insbesondere von 1 bis 3) weisen auf eine gute bis sehr gute Herbizidwirkung hin)	gute bis sehr gute Herbizidwirkung (Boniturnoten von 1 bis 4 (insbesondere von 1 bis 3) weisen auf eine gute bis sehr gute Herbizidwirkung hin)	gute bis sehr gute Herbizidwirkung (Boniturnoten von 1 bis 4 (insbesondere von 1 bis 3) weisen auf eine gute bis sehr gute Herbizidwirkung hin)	gute bis sehr gute Herbizidwirkung (Boniturnoten von 1 bis 4 (insbesondere von 1 bis 3) weisen auf eine gute bis sehr gute Herbizidwirkung hin)	gute bis sehr gute Herbizidwirkung (Boniturnoten von 1 bis 4 (insbesondere von 1 bis 3) weisen auf eine gute bis sehr gute Herbizidwirkung hin)	gute bis sehr gute Herbizidwirkung (Boniturnoten von 1 bis 4 (insbesondere von 1 bis 3) weisen auf eine gute bis sehr gute Herbizidwirkung hin)	gute bis sehr gute Herbizidwirkung (Boniturnoten von 1 bis 4 (insbesondere von 1 bis 3) weisen auf eine gute bis sehr gute Herbizidwirkung hin)	gute bis sehr gute Herbizidwirkung (Boniturnoten von 1 bis 4 (insbesondere von 1 bis 3) weisen auf eine gute bis sehr gute Herbizidwirkung hin)	gute bis sehr gute Herbizidwirkung (Boniturnoten von 1 bis 4 (insbesondere von 1 bis 3) weisen auf eine gute bis sehr gute Herbizidwirkung hin)	gute bis sehr gute Herbizidwirkung (Boniturnoten von 1 bis 4 (insbesondere von 1 bis 3) weisen auf eine gute bis sehr gute Herbizidwirkung hin)	gute bis sehr gute Herbizidwirkung (Boniturnoten von 1 bis 4 (insbesondere von 1 bis 3) weisen auf eine gute bis sehr gute Herbizidwirkung hin)	gute bis sehr gute Herbizidwirkung (Boniturnoten von 1 bis 4 (insbesondere von 1 bis 3) weisen auf eine gute bis sehr gute Herbizidwirkung hin)	gute bis sehr gute Herbizidwirkung (Boniturnoten von 1 bis 4 (insbesondere von 1 bis 3) weisen auf eine gute bis sehr gute Herbizidwirkung hin)	gute bis sehr gute Herbizidwirkung (Boniturnoten von 1 bis 4 (insbesondere von 1 bis 3) weisen auf eine gute bis sehr gute Herbizidwirkung hin)	gute bis sehr gute Herbizidwirkung (Boniturnoten von 1 bis 4 (insbesondere von 1 bis 3) weisen auf eine gute bis sehr gute Herbizidwirkung hin)	gute Toleranz (Boniturnoten von 6 bis 9 (insbesondere 7 bis 9) weisen auf eine gute Toleranz (insbesondere bei Kulturpflanzen) hin)	gute Toleranz (Boniturnoten von 6 bis 9 (insbesondere 7 bis 9) weisen auf eine gute Toleranz (insbesondere bei Kulturpflanzen) hin)	
CC(C)C1(C)NC(c2nc3c(cc2C(=O)O)C(C)(C)CCC3)=NC1=O (stereo not drawn) [Verbindung 2.12, 2-(5-Isopropyl-5-methyl-1 H-imidazol-4-on-2-yl)-5,5-dimethyl-5,6,7,8-tetrahydrochinolin-3-carbonsäure]																				ausgeprägter "pre-post-Selektivität"
CC1CCc2cc3c(nc2C1)C1=NC(C)(C(C)C)C(=O)N1C3=O (stereo not drawn) [Verbindung 3.03, 2,9-Dimethyl-2-isopropyl-7,8,9,10-tetrahydro-3H,5H-imidazo[1',2':1,2]pyrrolo[3,4-b]chinolin-3,5-dion]																				ausgeprägter "pre-post-Selektivität"
